The values that follow come from PMC10780633, “Novel Multi-Target Agents Based on the Privileged Structure of 4-Hydroxy-2-quinolinone” (Molecules, 2023).

One may read the IC50 as the concentration that inhibits the measured activity by half. High values mean weaker potency in that assay, low ones greater potency in that assay. As a reminder, the inhibition is the change of the read-out against control, counted positive when it falls. A low value points to a weak effect.

Tested on in one experiment: not listed separately
Put plainly: ABTS radical cation decolorization assay. Particulars: 0.1 mM. How it is done:
(§1) In this work, the carboxamides 3a–3u, the quinolinone–cinnamic or benzoic acid hybrids 11a–11g and the reverse amides 16a–16c were tested for their antioxidant activity via five in vitro techniques; (i) the interaction with the stable free radical 2,2-diphenyl-1-picrylhydrazyl (DPPH); (ii) the inhibition of lipid peroxidation; (iii) the hydroxyl radical scavenging ability; (iv) the 2,2-azino-bis(3-ethylbenzothiazoline-6-sulfonic acid (ABTS) radical cation (ABTS·^+) reduction; and (v) the superoxide anion radical scavenging ability.
The experimental technique used in this section was performed according to the methods of Pontiki et al.. The results were compared to the appropriate standard inhibitor Trolox.
`CCCNC(=O)c1c(O)c2ccccc2n(-c2ccccc2)c1=O` [Compound 3b, 4-hydroxy-2-oxo-1-phenyl-N-propyl-1,2-dihydroquinoline-3-carboxamide]: the “ABTS% (ABTS radical cation decolorization)” value was determined as 35.5%.
Still for that read-out and setting: under `Cn1c(=O)c(C(=O)NCCO)c(O)c2ccccc21` [Compound 3c, 4-hydroxy-N-(2-hydroxyethyl)-1-methyl-2-oxo-1,2-dihydroquinoline-3-carboxamide] stands 25.6%.
Still for that read-out and setting: with `O=C(NCCO)c1c(O)c2ccccc2n(-c2ccccc2)c1=O` [Compound 3d, 4-hydroxy-N-(2-hydroxyethyl)-2-oxo-1-phenyl-1,2-dihydroquinoline-3-carboxamide] the entry was “no activity and no”; with `CCCCCCCNC(=O)c1c(O)c2ccccc2n(C)c1=O` [Compound 3e, N-heptyl-4-hydroxy-1-methyl-2-oxo-1,2-dihydroquinoline-3-carboxamide], 2.6%; with `O=C(Nc1ccc(O)cc1)c1c(O)c2ccccc2n(-c2ccccc2)c1=O` [Compound 3g, 4-hydroxy-N-(4-hydroxyphenyl)-2-oxo-1-phenyl-1,2-dihydroquinoline-3-carboxamide], 72.4%.
For the compound `CC1CCCCC1NC(=O)c1c(O)c2ccccc2n(C)c1=O` (stereo not drawn) [Compound 3h, 4-hydroxy-1-methyl-N-(2-methylcyclohexyl)-2-oxo-1,2-dihydroquinoline-3-carboxamide], the “ABTS% (ABTS radical cation decolorization)” value is listed as “no”.

The target in the next experiment is T1, soybean lipoxygenase (Glycine max, UniProt P08170).
T1 construct: purchased Sigma Chemical, Co. (St. Louis, MO, USA)
T1 sequence (P08170 1-839): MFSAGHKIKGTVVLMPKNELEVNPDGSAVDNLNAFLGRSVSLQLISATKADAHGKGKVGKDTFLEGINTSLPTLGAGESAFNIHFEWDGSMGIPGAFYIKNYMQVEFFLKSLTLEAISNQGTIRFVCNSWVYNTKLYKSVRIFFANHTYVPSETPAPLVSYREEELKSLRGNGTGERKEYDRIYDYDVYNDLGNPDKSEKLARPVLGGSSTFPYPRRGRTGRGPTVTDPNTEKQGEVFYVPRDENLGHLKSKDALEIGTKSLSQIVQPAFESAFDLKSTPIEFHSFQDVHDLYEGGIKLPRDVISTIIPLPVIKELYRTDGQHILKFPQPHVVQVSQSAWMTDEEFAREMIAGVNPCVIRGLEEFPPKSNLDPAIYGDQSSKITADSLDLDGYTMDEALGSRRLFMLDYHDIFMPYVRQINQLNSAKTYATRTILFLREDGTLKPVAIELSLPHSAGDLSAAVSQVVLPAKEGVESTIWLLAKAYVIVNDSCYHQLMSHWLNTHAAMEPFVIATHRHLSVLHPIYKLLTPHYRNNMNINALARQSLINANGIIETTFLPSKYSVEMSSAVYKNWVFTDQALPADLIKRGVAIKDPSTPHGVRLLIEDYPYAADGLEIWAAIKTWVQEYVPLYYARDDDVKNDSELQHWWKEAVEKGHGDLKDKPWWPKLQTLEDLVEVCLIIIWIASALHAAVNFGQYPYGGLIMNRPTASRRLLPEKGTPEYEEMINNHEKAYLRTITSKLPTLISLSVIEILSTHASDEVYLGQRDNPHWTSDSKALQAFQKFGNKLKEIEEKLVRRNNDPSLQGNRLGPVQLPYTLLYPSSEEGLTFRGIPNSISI
Kind of experiment: Soybean LOX inhibition in vitro (UV absorbance-based assay). In kind it is biochemical.
Details: not given
How it is done: For this study, the UV absorbance-based soybean LOX assay was used.
The assay for the determination of the inhibition of soybean LOX was performed according to the methods of Hadjipavlou-Litina et al., which we have also used in our previous works.
As for `Cn1c(=O)c(C(=O)NCCO)c(O)c2ccccc21` [Compound 3c, 4-hydroxy-N-(2-hydroxyethyl)-1-methyl-2-oxo-1,2-dihydroquinoline-3-carboxamide], it took 52 µM to reach half-maximal inhibition (IC50).
Same read-out and setting: with `O=C(Nc1ccc(O)cc1)c1c(O)c2ccccc2n(-c2ccccc2)c1=O` [Compound 3g, 4-hydroxy-N-(4-hydroxyphenyl)-2-oxo-1-phenyl-1,2-dihydroquinoline-3-carboxamide] the figure was 27.5 µM; with `CC1CCCCC1NC(=O)c1c(O)c2ccccc2n(C)c1=O` (stereo not drawn) [Compound 3h, 4-hydroxy-1-methyl-N-(2-methylcyclohexyl)-2-oxo-1,2-dihydroquinoline-3-carboxamide], 10 µM.

Staying with this experiment, now noted: 0.1 mM.
As to `CCCNC(=O)c1c(O)c2ccccc2n(-c2ccccc2)c1=O` [Compound 3b, 4-hydroxy-2-oxo-1-phenyl-N-propyl-1,2-dihydroquinoline-3-carboxamide], 100 µM produced 45% inhibition.
As to `O=C(NCCO)c1c(O)c2ccccc2n(-c2ccccc2)c1=O` [Compound 3d, 4-hydroxy-N-(2-hydroxyethyl)-2-oxo-1-phenyl-1,2-dihydroquinoline-3-carboxamide], the “Inhibition of Soybean Lipoxygenase % at 0.1 mM” value is “inactive and no”.
With `CCCCCCCNC(=O)c1c(O)c2ccccc2n(C)c1=O` [Compound 3e, N-heptyl-4-hydroxy-1-methyl-2-oxo-1,2-dihydroquinoline-3-carboxamide], the “Inhibition of Soybean Lipoxygenase % at 0.1 mM” value is “no activity and no”.

Tested on in a further experiment: not listed separately
Put plainly: Competition with DMSO for hydroxyl radicals. The note with it: 0.1 mM. The protocol: as §1
The assay was performed according to the methods of Pontiki et al. Trolox was used as a reference compound [78].
`CCCNC(=O)c1c(O)c2ccccc2n(-c2ccccc2)c1=O` [Compound 3b, 4-hydroxy-2-oxo-1-phenyl-N-propyl-1,2-dihydroquinoline-3-carboxamide]: the “OH% (hydroxyl radical scavenging)” value is 40.8%.
Still for that read-out and setting: under `Cn1c(=O)c(C(=O)NCCO)c(O)c2ccccc21` [Compound 3c, 4-hydroxy-N-(2-hydroxyethyl)-1-methyl-2-oxo-1,2-dihydroquinoline-3-carboxamide] stands 39.8%.
The same measure, in the same setting: under `O=C(NCCO)c1c(O)c2ccccc2n(-c2ccccc2)c1=O` [Compound 3d, 4-hydroxy-N-(2-hydroxyethyl)-2-oxo-1-phenyl-1,2-dihydroquinoline-3-carboxamide] stands “no”; under `CCCCCCCNC(=O)c1c(O)c2ccccc2n(C)c1=O` [Compound 3e, N-heptyl-4-hydroxy-1-methyl-2-oxo-1,2-dihydroquinoline-3-carboxamide], 86.1%.
Same read-out and setting: with `O=C(Nc1ccc(O)cc1)c1c(O)c2ccccc2n(-c2ccccc2)c1=O` [Compound 3g, 4-hydroxy-N-(4-hydroxyphenyl)-2-oxo-1-phenyl-1,2-dihydroquinoline-3-carboxamide] the figure was 67.7%; with `CC1CCCCC1NC(=O)c1c(O)c2ccccc2n(C)c1=O` (stereo not drawn) [Compound 3h, 4-hydroxy-1-methyl-N-(2-methylcyclohexyl)-2-oxo-1,2-dihydroquinoline-3-carboxamide], 78.6%.

Tested on in another experiment: not listed separately
Put plainly: Interaction with the stable free radical DPPH (reducing activity). Particulars: 100 μM, 20 min. How it is done: as §1
On to `CCCNC(=O)c1c(O)c2ccccc2n(-c2ccccc2)c1=O` [Compound 3b, 4-hydroxy-2-oxo-1-phenyl-N-propyl-1,2-dihydroquinoline-3-carboxamide], for which the “Interaction with the Free Radical DPPH (%)” value was 2.7%.
The same measure, in the same setting: under `Cn1c(=O)c(C(=O)NCCO)c(O)c2ccccc21` [Compound 3c, 4-hydroxy-N-(2-hydroxyethyl)-1-methyl-2-oxo-1,2-dihydroquinoline-3-carboxamide] stands 3.3%.
Still for that read-out and setting: under `O=C(NCCO)c1c(O)c2ccccc2n(-c2ccccc2)c1=O` [Compound 3d, 4-hydroxy-N-(2-hydroxyethyl)-2-oxo-1-phenyl-1,2-dihydroquinoline-3-carboxamide] stands 15.9%; under `CCCCCCCNC(=O)c1c(O)c2ccccc2n(C)c1=O` [Compound 3e, N-heptyl-4-hydroxy-1-methyl-2-oxo-1,2-dihydroquinoline-3-carboxamide], 6.6%.
Same read-out and setting: with `O=C(Nc1ccc(O)cc1)c1c(O)c2ccccc2n(-c2ccccc2)c1=O` [Compound 3g, 4-hydroxy-N-(4-hydroxyphenyl)-2-oxo-1-phenyl-1,2-dihydroquinoline-3-carboxamide] the figure was 40.7%; with `CC1CCCCC1NC(=O)c1c(O)c2ccccc2n(C)c1=O` (stereo not drawn) [Compound 3h, 4-hydroxy-1-methyl-N-(2-methylcyclohexyl)-2-oxo-1,2-dihydroquinoline-3-carboxamide], 6.0%.

Staying with this experiment, now noted: 100 μM, 60 min.
Regarding `CCCNC(=O)c1c(O)c2ccccc2n(-c2ccccc2)c1=O` [Compound 3b, 4-hydroxy-2-oxo-1-phenyl-N-propyl-1,2-dihydroquinoline-3-carboxamide], the “Interaction with the Free Radical DPPH (%)” value is listed as 11.8%.
On the same count and under the same terms, under `Cn1c(=O)c(C(=O)NCCO)c(O)c2ccccc21` [Compound 3c, 4-hydroxy-N-(2-hydroxyethyl)-1-methyl-2-oxo-1,2-dihydroquinoline-3-carboxamide] stands 10.7%; under `O=C(NCCO)c1c(O)c2ccccc2n(-c2ccccc2)c1=O` [Compound 3d, 4-hydroxy-N-(2-hydroxyethyl)-2-oxo-1-phenyl-1,2-dihydroquinoline-3-carboxamide], 20.8%.
Still for that read-out and setting: under `CCCCCCCNC(=O)c1c(O)c2ccccc2n(C)c1=O` [Compound 3e, N-heptyl-4-hydroxy-1-methyl-2-oxo-1,2-dihydroquinoline-3-carboxamide] stands 12.2%; under `O=C(Nc1ccc(O)cc1)c1c(O)c2ccccc2n(-c2ccccc2)c1=O` [Compound 3g, 4-hydroxy-N-(4-hydroxyphenyl)-2-oxo-1-phenyl-1,2-dihydroquinoline-3-carboxamide], 51.7%.
Still for that read-out and setting: with `CC1CCCCC1NC(=O)c1c(O)c2ccccc2n(C)c1=O` (stereo not drawn) [Compound 3h, 4-hydroxy-1-methyl-N-(2-methylcyclohexyl)-2-oxo-1,2-dihydroquinoline-3-carboxamide] the figure was 8.1%.

Tested on in a further experiment: not listed separately
Kind of experiment: Non-enzymatic superoxide anion radical scavenging assay (PMS). The note with it: 0.1 mM. The protocol: as §1
The experimental technique used for this assay was performed according to our previous works. Caffeic acid was used as an appropriate standard.
`CCCNC(=O)c1c(O)c2ccccc2n(-c2ccccc2)c1=O` [Compound 3b, 4-hydroxy-2-oxo-1-phenyl-N-propyl-1,2-dihydroquinoline-3-carboxamide]: the “PMS% (superoxide anion radical scavenging)” value was determined as 84.6%.
Same read-out and setting: under `Cn1c(=O)c(C(=O)NCCO)c(O)c2ccccc21` [Compound 3c, 4-hydroxy-N-(2-hydroxyethyl)-1-methyl-2-oxo-1,2-dihydroquinoline-3-carboxamide] stands 76.9%; under `O=C(NCCO)c1c(O)c2ccccc2n(-c2ccccc2)c1=O` [Compound 3d, 4-hydroxy-N-(2-hydroxyethyl)-2-oxo-1-phenyl-1,2-dihydroquinoline-3-carboxamide], 66.6%; under `CCCCCCCNC(=O)c1c(O)c2ccccc2n(C)c1=O` [Compound 3e, N-heptyl-4-hydroxy-1-methyl-2-oxo-1,2-dihydroquinoline-3-carboxamide], 66.6%.
Same read-out and setting: under `O=C(Nc1ccc(O)cc1)c1c(O)c2ccccc2n(-c2ccccc2)c1=O` [Compound 3g, 4-hydroxy-N-(4-hydroxyphenyl)-2-oxo-1-phenyl-1,2-dihydroquinoline-3-carboxamide] stands “no”.
The same measure, in the same setting: under `CC1CCCCC1NC(=O)c1c(O)c2ccccc2n(C)c1=O` (stereo not drawn) [Compound 3h, 4-hydroxy-1-methyl-N-(2-methylcyclohexyl)-2-oxo-1,2-dihydroquinoline-3-carboxamide] stands “no”.

Tested on in a further experiment: not listed separately
Put plainly: Inhibition of lipid peroxidation of linoleic acid induced by AAPH radical. Particulars: 100 μM. How it is done:
as §1
The assay for the determination of the inhibition of linoleic acid peroxidation induced by the free radical initiator […](2-amidinopropane) dihydrochloride (AAPH) was performed according to the methods of Hadjipavlou-Litina et al., which we have also used in our previous works.
Take `CCCNC(=O)c1c(O)c2ccccc2n(-c2ccccc2)c1=O` [Compound 3b, 4-hydroxy-2-oxo-1-phenyl-N-propyl-1,2-dihydroquinoline-3-carboxamide]: the “Inhibition of Lipid Peroxidation of Linoleic Acid Induced by AAPH Radical (%)” value stood at 100%.
The same measure, in the same setting: under `Cn1c(=O)c(C(=O)NCCO)c(O)c2ccccc21` [Compound 3c, 4-hydroxy-N-(2-hydroxyethyl)-1-methyl-2-oxo-1,2-dihydroquinoline-3-carboxamide] stands 100%; under `O=C(NCCO)c1c(O)c2ccccc2n(-c2ccccc2)c1=O` [Compound 3d, 4-hydroxy-N-(2-hydroxyethyl)-2-oxo-1-phenyl-1,2-dihydroquinoline-3-carboxamide], 32.8%.
On the same count and under the same terms, with `CCCCCCCNC(=O)c1c(O)c2ccccc2n(C)c1=O` [Compound 3e, N-heptyl-4-hydroxy-1-methyl-2-oxo-1,2-dihydroquinoline-3-carboxamide] the entry was “inactive and no”; with `O=C(Nc1ccc(O)cc1)c1c(O)c2ccccc2n(-c2ccccc2)c1=O` [Compound 3g, 4-hydroxy-N-(4-hydroxyphenyl)-2-oxo-1-phenyl-1,2-dihydroquinoline-3-carboxamide], 100%; with `CC1CCCCC1NC(=O)c1c(O)c2ccccc2n(C)c1=O` (stereo not drawn) [Compound 3h, 4-hydroxy-1-methyl-N-(2-methylcyclohexyl)-2-oxo-1,2-dihydroquinoline-3-carboxamide], 31%.
